# Assay results published in US8455647B2, “6-aminoisoquinoline compounds” (Aerie Pharmaceuticals, Inc., priority 2005, dated 2013).
# Where a name gives a salt, the structure may show the parent alone.
# How the values were obtained:
# Assay type in all cases: in vivo
# [1] = test system: eyes; assay: Topical ocular composition (Example 212), dry eye syndrome; settings: composition of Example 212 (0.50 wt %), as a drop twice per day
# [2] = test system: eyes; assay: Topical ocular composition (Example 212), allergic symptoms
# [3] = test system: eyes; assay: Topical ocular composition (Example 212), hyperemia, redness and ocular irritation; settings: composition of Example 212 (0.50 wt %), as a drop as needed
# [4] = test system: patient suffering from glaucoma; assay: Topical ocular composition (Example 212) lowering intraocular pressure
# Description: Examples of such assays are described in the following reference, incorporated herein by reference: C. Liljebris, G. Selen, B. Resul, J. Sternschantz, and U. Hacksell, “Derivatives of 17-Phenyl-18,19,20-trinorprostaglandin F2α Isopropyl Ester: Potential Anti-glaucoma Agents”, Journal of Medicinal Chemistry, Vol. 38 (2) 1995, pp. 289-304.
# (§1) Topical pharmaceutical compositions for lowering intraocular pressure are prepared by conventional methods and formulated as follows: […]
# (§2) A compound according to this invention is used as the 6-aminoisoquinoline derivative. […]
# [5] = test system: eyes; assay: Topical ocular composition (Example 212), neuroprotective agent; settings: composition of Example 212 (0.50 wt %), as a drop 4 times per day
# Description: as §1, §2
# [6] = composition of Example 212 (0.50 wt %), as a drop twice per day
# [7] = composition of Example 212/213 (0.50 wt %), as a drop twice a day or as needed
smiles,measurement,setting,value
"O=C(CCl)Nc1ccc2cnccc2c1 [Example E1, 2-chloro-N-(isoquinolin-6-yl) acetamide]",relief of dry eye syndrome,[1],relieves dry eye syndrome
same,decrease of allergic symptoms,[2]; [6],substantially decreases allergic symptoms
"NCC(=O)Nc1ccc2cnccc2c1 [Example E40, 2-amino-N-isoquinoline-6-yl-acetamide dihydrochloride]","decrease of hyperemia, redness and ocular irritation",[3],"substantially decreases hyperemia, redness and ocular irritation"
"O=C(CNCc1ccccc1)Nc1ccc2cnccc2c1 [Example E58, 2-(benzylamino)-N-(isoquinolin-6-yl)acetamide]",decrease of intraocular pressure,[4]; [6],substantially decreases intraocular pressure
"O=C(Nc1ccc2cnccc2c1)OCc1ccccc1 [Example E87, benzylisoquinolin-6-ylcarbamate]",relief of dry eye syndrome,[1],relieves dry eye syndrome
same,decrease of allergic symptoms,[2]; [6],substantially decreases allergic symptoms
"O=C(NCc1ccccc1)Nc1ccc2cnccc2c1 [Example E88, 1-benzyl-3-(isoquinolin-6-yl)urea]",decrease of allergic symptoms,"[2]; composition of Example 212/213 (0.50 wt %), as a drop as needed",substantially decreases allergic symptoms
"O=C(CN1CCOCC1)Nc1ccc2cnccc2c1 [Example E105, N-(isoquinolin-6-yl)-2-morpholinoacetamide]","decrease of hyperemia, redness and ocular irritation",[3],"substantially decreases hyperemia, redness and ocular irritation"
"O=C(Nc1ccncc1)c1ccc(C2CC2C(=O)Nc2ccc3cnccc3c2)cc1 (stereo not shown) [Example E118, 4-(2-(isoquinolin-6-ylcarbamoyl)cyclopropyl)-N-(pyridin-4-yl)benzamide]",decrease of intraocular pressure,[4]; [7],substantially decreases intraocular pressure
"CNC(=O)c1cccc(NCC(=O)Nc2ccc3cnccc3c2Cl)c1 [Example E119b, 3-(2-(5-chloroisoquinolin-6-ylamino)-2-oxoethylamino)-N-methyl benzamide]",decrease of intraocular pressure,[4]; [7],substantially decreases intraocular pressure
"CNC(=O)c1cccc(NCS(=O)(=O)Nc2ccc3cnccc3c2)c1 [Example E136, 3-((N-isoquinolin-6-ylsulfamoyl)methylamino)-N-methylbenzamide]",decrease of intraocular pressure,[4]; [6],substantially decreases intraocular pressure
"N[C@@H](CSCC(C(=O)c1ccc(/C=C/C(=O)Nc2ccc3cnccc3c2)cc1)c1ccccc1)C(=O)O (stereo partly drawn) [Example E207, (2R)-2-amino-3-(3-(4-((E)-3-(isoquinolin-6-ylamino)-3-oxoprop-1-enyl)phenyl)-3-oxo-2-phenylpropylthio)propanoic acid]",neuroprotective agent,[5],serves as a neuroprotective agent
same,decrease of intraocular pressure,"[4]; composition of Example 212 (0.50 wt %), as a drop 4 times per day",substantially decreases intraocular pressure
